According to US10035799B2, “COMT inhibiting methods and compositions” (Lieber Institute for Brain Development, priority 2015, dated 2018):

Biological target: T1, catechol-O-methyltransferase (COMT) (Homo sapiens, UniProt P21964)
T1 construct: M51A variant) was expressed in HEK 293F cells
T1 sequence (P21964 52-271 limits assumed): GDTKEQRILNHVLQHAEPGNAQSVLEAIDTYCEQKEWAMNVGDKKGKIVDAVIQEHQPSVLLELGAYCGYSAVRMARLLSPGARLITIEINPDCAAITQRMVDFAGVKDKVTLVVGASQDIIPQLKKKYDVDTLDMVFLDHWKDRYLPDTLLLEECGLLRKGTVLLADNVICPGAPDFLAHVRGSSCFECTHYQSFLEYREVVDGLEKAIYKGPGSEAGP
Assay: COMT inhibition assay (HTRF, production of S-adenosyl homocysteine)
Type: biochemical
Settings: recombinant human COMT, HTRF SAH production; MB-COMT or S-COMT not stated for Table 1
Protocol: The ability of compounds to inhibit the activity of catechol-O-methyltransferase (COMT) was determined by a homogenous time-resolved fluorescent (HTRF) assay (Lina et al, 2012; kit from CisBio, Codolet, France). This assay measures the production of S-adenosyl homocysteine (SAH) from the methyl donor S-adenosyl methionine. Recombinant human membrane bound COMT (MB-COMT; M51A variant) was expressed in HEK 293F cells using 293Fectin (Life Technologies, Gent, Belgium) and membranes prepared. The membranes were re-suspended in buffer (20 mM Tris/HCl pH 7; 10 mM glycerol; 2 mM MgCl2; 10 mM NaCl), aliquoted and stored at −80° C. Recombinant human soluble COMT(S-COMT), Va1158 variant and a hexa-His tag on the N-terminus, was purified using Ni-NTA chromatography, the His tag removed and stored in buffer as above.
For the human MB-COMT assay, membranes (62 ng/well) were incubated with SAM (20 μM final, CisBio) and dopamine (1.5 μM final; Sigma H8502, Diegem, Belgium) in the presence or absence of varying concentrations (typically 10 concentrations ranging from 10 μM to 0.1 nM) of compound for 40 min at 37° C. in 384-well microtitre plates (10 μl per well final volume). The reaction was terminated by the addition of acylation buffer and the amount of SAH produced determined according to manufacturer's instructions. Specific inhibition as that inhibited by a high concentration of tolcapone (10 μM; synthesised at UCB) and all experiments were validated using a control curve to tolcapone.
The human S-COMT assay was performed as above except that 0.15 ng enzyme/well was incubated with SAM (20 μM final) and dopamine (100 μM final) for 15 min at 37° C. and SAH production determined.
HTRF readings were performed using a Perkin Elmer Envision and results expressed as concentration of SAH produced using a standard curve. Results were analysed using non-linear regression to the 4-parameter logistic equation and pIC50 (−log 10 concentration of drug which inhibits enzyme activity/SAH production by 50%) determined.

Structure (SMILES) | Activity range (pIC50, COMT inhibition)
O=S(=O)(c1ccc(O)c2ncccc12)N1CCCC1Cc1ccccc1 (stereo not drawn) [Example 75, 5-(2-benzylpyrrolidin-1-yl)sulfonylquinolin-8-ol] | +++ (a pIC50 of above about 7)
CN(Cc1ccc2ccccc2c1)S(=O)(=O)c1ccc(O)c2ncccc12 [Example 55, 8-hydroxy-N-methyl-N-(2-naphthylmethyl)quinoline-5-sulfonamide] | ++ (a pIC50 of from about great than 6 to 7)
O=S(=O)(c1ccc(O)c2ncccc12)N1C[C@@H](F)[C@H](F)C1 [Example 70, 5-[(3R,4R)-3,4-difluoropyrrolidin-1-yl]sulfonylquinolin-8-ol] | +++ (a pIC50 of above about 7)
CC(C)CC1CCCN1S(=O)(=O)c1ccc(O)c2ncccc12 (stereo not drawn) [Example 82, 5-(2-isobutylpyrrolidin-1-yl)sulfonylquinolin-8-ol] | +++ (a pIC50 of above about 7)
O=S(=O)(c1ccc(O)c2ncccc12)N1CCN(c2nsc3ccccc23)CC1 [Example 98, 5-[4-(1,2-benzothiazol-3-yl)piperazin-1-yl]sulfonylquinolin-8-ol] | ++ (a pIC50 of from about great than 6 to 7)
O=S(=O)(c1ccc(O)c2ncccc12)N1CCCC1c1cccnc1 (stereo not drawn) [Example 72, 5-[2-(3-pyridyl)pyrrolidin-1-yl]sulfonylquinolin-8-ol] | ++ (a pIC50 of from about great than 6 to 7)
O=C(c1ccccc1)C1CCN(S(=O)(=O)c2ccc(O)c3ncccc23)CC1 [Example 85, [1-[(8-hydroxy-5-quinolyl)sulfonyl]-4-piperidyl]-phenyl-methanone] | +++ (a pIC50 of above about 7)
O=S(=O)(c1ccc(O)c2ncccc12)N1CCC(O)(c2ccccc2)CC1 [Example 83, 5-[(4-hydroxy-4-phenyl-1-piperidyl)sulfonyl]quinolin-8-ol] | +++ (a pIC50 of above about 7)
C[C@H](c1ccccc1)N(C)S(=O)(=O)c1cc(F)c(O)c2ncccc12 [Example 123, 7-fluoro-8-hydroxy-N-methyl-N-[(1R)-1-phenylethyl]quinoline-5-sulfonamide] | +++ (a pIC50 of above about 7)
N#Cc1ccccc1N1CCN(S(=O)(=O)c2ccc(O)c3ncccc23)CC1 [Example 90, 2-[4-[(8-hydroxy-5-quinolyl)sulfonyl]piperazin-1-yl]benzonitrile] | +++ (a pIC50 of above about 7)
Cc1cc(S(=O)(=O)N2CCN(Cc3ccc(F)cc3)CC2)c2cccnc2c1O [Example 114, 5-[4-[(4-fluorophenyl)methyl]piperazin-1-yl]sulfonyl-7-methyl-quinolin-8-ol] | + (a pIC50 of from about 4.5 to 6)
C[C@H](c1ccccc1)N(C)S(=O)(=O)c1cc(Br)c(O)c2ncccc12 [Example 120, 7-bromo-8-hydroxy-N-methyl-N-[(1R)-1-phenylethyl]quinoline-5-sulfonamide] | + (a pIC50 of from about 4.5 to 6)
O=S(=O)(c1ccc(O)c2ncccc12)N1CCCC1c1ccccn1 (stereo not drawn) [Example 80, 5-[2-(2-pyridyl)pyrrolidin-1-yl]sulfonylquinolin-8-ol] | ++ (a pIC50 of from about great than 6 to 7)
O=S(=O)(c1ccc(O)c2ncccc12)N1CCN(c2ccccc2-c2ccccc2)CC1 [Example 92, 5-[4-(2-phenylphenyl)piperazin-1-yl]sulfonylquinolin-8-ol] | ++ (a pIC50 of from about great than 6 to 7)
O=S(=O)(c1ccc(O)c2ncccc12)N1CCC(c2ccccc2)CC1 [Example 73, 5-[(4-phenyl-1-piperidyl)sulfonyl]quinolin-8-ol] | +++ (a pIC50 of above about 7)
O=S(=O)(c1ccc(O)c2ncccc12)N1CCN(Cc2ccccc2)CC1 [Example 43, 5-(4-benzylpiperazin-1-yl)sulfonylquinolin-8-ol] | +++ (a pIC50 of above about 7)
CC(C)(C)OC(=O)N1CCN(S(=O)(=O)c2ccc(O)c3ncccc23)CC1 [Example 103, tert-butyl 4-[(8-hydroxy-5-quinolyl)sulfonyl]piperazine-1-carboxylate] | ++ (a pIC50 of from about great than 6 to 7)

Next, values leading:

Activity range (pIC50, COMT inhibition) | Structure (SMILES)
+++ (a pIC50 of above about 7) | Cc1ccc(S(=O)(=O)c2cc(F)c(O)c3ncccc23)cc1 [Example 110, 7-fluoro-5-(p-tolylsulfonyl)quinolin-8-ol]
+++ (a pIC50 of above about 7) | O=S(=O)(c1ccccc1C(F)(F)F)c1ccc(O)c2ncccc12 [Example 21, 5-[2-(trifluoromethyl)phenyl]sulfonylquinolin-8-ol]
+++ (a pIC50 of above about 7) | C[C@H](c1ccccc1)N(C)S(=O)(=O)c1ccc(O)c2ncccc12 [Example 50, 8-hydroxy-N-methyl-N-[(1R)-1-phenylethyl]quinoline-5-sulfonamide]
+++ (a pIC50 of above about 7) | O=S(=O)(c1cccc(-c2cccc3[nH]ncc23)c1)c1ccc(O)c2ncccc12 [Example 26, 5-[3-(1H-indazol-4-yl)phenyl]sulfonylquinolin-8-ol]
+++ (a pIC50 of above about 7) | O=S(=O)(c1cccc(-c2ccncc2)c1)c1ccc(O)c2ncccc12 [Example 23, 5-[3-(4-pyridyl)phenyl]sulfonylquinolin-8-ol]
+++ (a pIC50 of above about 7) | O=S(=O)(c1ccc2ccccc2c1)c1ccc(O)c2ncccc12 [Example 12, 5-(2-naphthylsulfonyl)quinolin-8-ol]
+++ (a pIC50 of above about 7) | Cc1ccc(CCS(=O)(=O)c2ccc(O)c3ncccc23)cc1 [Example 29, 5-[2-(p-tolyl)ethylsulfonyl]quinolin-8-ol]
+++ (a pIC50 of above about 7) | Cc1ccc(S(=O)(=O)c2ccc(O)c3ncccc23)cc1C [Example 3, 5-(3,4-dimethylphenyl)sulfonylquinolin-8-ol]
+++ (a pIC50 of above about 7) | COc1ccc(S(=O)(=O)c2ccc(O)c3ncccc23)cc1 [Example 18, 5-(4-methoxyphenyl)sulfonylquinolin-8-ol]
+++ (a pIC50 of above about 7) | O=S(=O)(c1ccccn1)c1ccc(O)c2ncccc12 [Example 16, 5-(2-pyridylsulfonyl)quinolin-8-ol]
+++ (a pIC50 of above about 7) | CN(Cc1ccccc1F)S(=O)(=O)c1ccc(O)c2ncccc12 [Example 52, N-[(2-fluorophenyl)methyl]-8-hydroxy-N-methyl-quinoline-5-sulfonamide]
+++ (a pIC50 of above about 7) | Cc1cc(C)cc(S(=O)(=O)c2ccc(O)c3ncccc23)c1 [Example 4, 5-(3,5-dimethylphenyl)sulfonylquinolin-8-ol]
+++ (a pIC50 of above about 7) | Cc1ccccc1C1CCCN1S(=O)(=O)c1ccc(O)c2ncccc12 (stereo not drawn) [Example 71, 5-[2-(o-tolyl)pyrrolidin-1-yl]sulfonylquinolin-8-ol]
+++ (a pIC50 of above about 7) | CN(Cc1cccnc1)S(=O)(=O)c1ccc(O)c2ncccc12 [Example 54, 8-hydroxy-N-methyl-N-(3-pyridylmethyl)quinoline-5-sulfonamide]
+++ (a pIC50 of above about 7) | CCN(Cc1ccccc1)S(=O)(=O)c1ccc(O)c2ncccc12 [Example 56, N-benzyl-N-ethyl-8-hydroxy-quinoline-5-sulfonamide]
+++ (a pIC50 of above about 7) | O=S(=O)(c1cccc(C(F)(F)F)c1)c1ccc(O)c2ncccc12 [Example 13, 5-[3-(trifluoromethyl)phenyl]sulfonylquinolin-8-ol]
+++ (a pIC50 of above about 7) | Cc1ccc(S(=O)(=O)c2ccc(O)c3ncccc23)c(C)c1 [Example 10, 5-(2,4-dimethylphenyl)sulfonylquinolin-8-ol]
+++ (a pIC50 of above about 7) | O=S(=O)(c1cccc(-c2cccc3ncccc23)c1)c1ccc(O)c2ncccc12 [Example 25, 5-[3-(5-quinolyl)phenyl]sulfonylquinolin-8-ol]
+++ (a pIC50 of above about 7) | O=S(=O)(c1ccc(C(F)(F)F)cc1)c1ccc(O)c2ncccc12 [Example 11, 5-[4-(trifluoromethyl)phenyl]sulfonylquinolin-8-ol]
